Each structure is given as a SMILES string.

By IC50 is commonly meant the midpoint of a concentration-inhibition curve. A lower IC50 goes with greater potency.

The test system of data set [1] is Lung (NSCLC, adeno) LXFA 749. Briefly: CFA, LXFA 749. It counts as cell-based, human. As to conditions: PDX/CFA. As for the experimental part:
(§1) CFA was performed by Charles River Laboratories (Freiburg, Germany) in 96-well plate format according to a modified two-layer soft agar assay. The origin of the tumor xenografts has been described (Fiebig et al. 1989, incorporated herein by reference). The list of tumors used in this study is detailed in Table 1.

In a further data set the test system is Lung (SCLC) LXFS 573. Briefly: CFA, LXFS 573. Format: cell-based, human. As to conditions: PDX/CFA. As for the experimental part: as §1
In the next data set the test system is Lung (SCLC) LXFS NCI-H82. Briefly: CFA, LXFS NCI-H82. Format: cell-based, human. The settings on record: Cell line/CFA. As for the experimental part:
as §1

In data set [2] the test system is Lymphoma (Non-Hodgkin) LYXFNH HUT-78. Briefly: CFA, LYXFNH HUT-78. It counts as cell-based, human. As to conditions: Cell line/CFA. As for the experimental part: as §1
The cell lines tested were from a large collection of patient-derived (PDX) and cell line-derived (CDX) human tumor xenografts growing subcutaneously in immunodeficient nude mice (Oncotest GmbH, a Charles River Division). The majority of the xenografts have been directly transplanted from patients and passaged in nude mice. The xenografts retain most of the characteristics of the parental patient tumors including histology and sensitivity to anti-cancer drugs, and efficacy tests in tumor-bearing nude mice largely replicate the response of the donor patient to standard anti-cancer drugs. The cell lines were from publicly available cell lines, including cell lines derived from solid tumors and hematological malignancies. […]
The clonogenic assay was carried out in a 96 well plate format using ultra low attachment plates. […] Cultures were incubated at 37° C. and 7.5% CO2 in a humidified atmosphere for 8 to 14 days and monitored closely for colony growth using an inverted microscope. […]

The nature of data set [3]: AK/cSCC mouse model of chronic UVB exposure: local and general tolerability. Format: in vivo. As to conditions: UVB-exposed SKH-1 mice, Day 1 through Day 50. As for the experimental part: The formulation ingredients for vehicle, 2.5%, and 5% Formula C ointment consisted of: 32% Gelucire44/14® (Gattefosse, Saint-Priest, France), and 68% combined Labrasol® (Gattefosse, Saint-Priest, France) with corresponding amount of Formula C (w/w). New ointments were prepared every 2 weeks. The 40% topical solution was prepared just prior to use by mixing (w/w) 60% propylene glycol (Sigma, St. Louis, MO, USA) with 40% Formula C.
The effect of Formula C on cell proliferation and apoptosis was tested in an AK/cSCC mouse model of chronic UVB exposure. Forty-eight SKH-1 hairless female mice were chronically exposed to UVB radiation for 16 weeks. By that time, more than 60% of the animals had developed at least one SCC lesion. Three days after the final irradiation dose, the mice were randomly assigned to 1 of 4 treatment groups (N=12 mice/group) and a 50-day treatment phase started. Treatment groups included: vehicle, 2.5% or 5% Formula C ointment applied once-daily for 50 days, or 40% Formula C topical solution applied once-daily for the first 5 days of every three-week cycle (total of three treatment cycles).

Data set [4] has as its system Leukemia (BCLL) LEXFCM MEG-01. Briefly: CFA, LEXFCM MEG-01. The settings on record: Cell line/CFA. It counts as cell-based, human. As for the experimental part: as §1
For data set [5], the system named is Leukemia (AML) LEXFAM THP-1. Briefly: CFA, LEXFAM THP-1. It counts as cell-based, human. As to conditions: Cell line/CFA. As for the experimental part: as §1
Data set [6] relates to Leukemia (AML) LEXFAM NOMO-1. Briefly: CFA, LEXFAM NOMO-1. It counts as cell-based, human. The settings on record: Cell line/CFA. As for the experimental part: as §1
The target of data set [7] is T1, HK1 association with the mitochondria (Homo sapiens, UniProt P19367).
T1 construct: human skin SCC A431 cells (which express both HK1 and HK2); endogenous in cells; host or cells: A431
Briefly: Western Blot of mitochondrial fraction, HK1 in A431 cells. It counts as cell-based. As to conditions: similar experimental setup, data not shown. As for the experimental part: A431 cells were treated for 2 hours at 37° C. with various concentrations of Formula C in medium without FCS and 2 mM L-Gln. Mitochondria were isolated using Mitochondria Isolation Kit (Thermo Fisher Scientific, Rockford, IL) followed by a WB. Semi-quantification of the WB was done with Imagequant TL software v8.1 (GE healthcare Life Sciences, Little Chalfont, United Kingdom). TIM22 was used as a loading control for mitochondria. Cyclophilin A (PPIA) was used as a cytosolic marker.
Antibodies used: anti-rabbit HK1 (C-20245) and HK2 (C-28765) from CST (Danvers, MA), anti-rabbit PPIA (ab41684, Abcam), anti-rabbit TIM22 (14927-1-AP, Proteintech Group Inc., Rosemont, IL), anti-rabbit Cytochrome C (PA1118, Boster Biological Technology, Pleasanton, CA). Detection was performed using secondary antibodies: peroxidase-conjugated Affinipure goat anti-rabbit IgG (H+L) or goat anti-mouse IgG (H+L) (111-035-003 and 115-035-003, Jackson ImmunoResearch, West Grove, PA), and development was using the ECL kit WesternBright™ ECL (K-12045-D10, Advansta, Menlo Park, California, USA).
Background: A western blot detects proteins with antibodies after separation by electrophoresis.

T1 sequence (P19367 whole entry): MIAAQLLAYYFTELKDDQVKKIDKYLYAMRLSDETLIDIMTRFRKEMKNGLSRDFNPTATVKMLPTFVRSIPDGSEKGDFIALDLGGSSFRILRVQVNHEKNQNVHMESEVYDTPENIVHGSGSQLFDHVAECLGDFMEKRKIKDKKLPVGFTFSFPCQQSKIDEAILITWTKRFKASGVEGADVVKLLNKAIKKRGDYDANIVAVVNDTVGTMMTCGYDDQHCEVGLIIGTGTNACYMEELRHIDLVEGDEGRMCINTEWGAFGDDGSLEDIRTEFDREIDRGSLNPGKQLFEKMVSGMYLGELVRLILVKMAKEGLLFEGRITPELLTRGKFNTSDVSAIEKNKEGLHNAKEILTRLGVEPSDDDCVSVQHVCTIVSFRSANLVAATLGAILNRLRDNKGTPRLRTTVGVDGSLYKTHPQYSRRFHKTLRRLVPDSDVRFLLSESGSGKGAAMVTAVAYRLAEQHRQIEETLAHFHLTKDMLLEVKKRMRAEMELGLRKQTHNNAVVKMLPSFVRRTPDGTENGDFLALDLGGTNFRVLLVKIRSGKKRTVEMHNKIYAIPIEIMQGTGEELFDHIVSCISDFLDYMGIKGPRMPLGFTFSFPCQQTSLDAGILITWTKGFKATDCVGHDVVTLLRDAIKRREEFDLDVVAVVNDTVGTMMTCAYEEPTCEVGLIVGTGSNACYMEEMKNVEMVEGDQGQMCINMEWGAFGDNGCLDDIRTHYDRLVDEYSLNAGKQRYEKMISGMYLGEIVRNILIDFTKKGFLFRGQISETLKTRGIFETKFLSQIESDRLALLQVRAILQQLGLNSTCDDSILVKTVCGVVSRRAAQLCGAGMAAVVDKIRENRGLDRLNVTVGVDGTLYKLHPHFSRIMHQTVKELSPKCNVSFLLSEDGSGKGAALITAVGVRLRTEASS

Consider `CC/C=C\CC1C(=O)CCC1CC(=O)Oc1cccc2cccnc12` (stereo not drawn) [Formula C], for which the IC50 was 1.7 µM in data set [1]; 1.94 µM in the data set on Lung (SCLC) LXFS 573; 1.77 µM in the data set with Lung (SCLC) LXFS NCI-H82; 0.965 µM in data set [2]; 2.76 µM in data set [4]; 2.18 µM in [5]. For the same compound, the IC50 in data set [6] stood at 1.42 µM. In data set [3] (2.5%, 5% ointment or 40% topical solution), the “adverse local skin reactions” value is “no adverse local skin reactions of any kind”. Moreover, the body weight abnormalities result in [3] is on record as “no abnormalities in body weight”. For the same compound, the clinical signs result in data set [3] is reported as “no clinical signs”. Moreover, in [3], the erythema or edema entry is recorded as “no erythema or edema”. In [7], the “HK1 association with the mitochondria” value is “not affected”.

These data come from US12527782B2, “Use of hexokinase 2/mitochondria-detaching compounds for treating hexokinase-2 (HK2)-expressing cancers” (Vidac Pharma Ltd., priority 2016, dated 2026).
